Data published in US20080027143A1, “CHEMICAL FORMULATION FOR AN INSECTICIDE” (priority 2006, published 2008).

How the values were obtained:
Type in all cases: physicochemical
[1] = Release rate and evaporation loss from piezoelectric diffusion device (Table 5); settings: for Evaporation Loss: OFF switch position, average of 30 hours; for Evaporation Loss / Release Rate in High Setting: 3 repetitions; for Release Rate in High Setting: ON, high switch setting, average of 13 hours
Text: A highly permeable wick is used in the diffusion device 20 to ensure easy and effective transfer of the liquid from the tip of the wick to the orifice plate 110. In addition, the plug and wick holder 72 that is fitted to the reservoir 50 includes two small orifices to enable equilibration of pressure between the headspace in the reservoir and the surrounding atmosphere. These design factors lead to slow evaporation of the solvent regardless of where the device 20 is switched on or off. Solvents with high volatility tend to evaporate more rapidly leading to concentration of the insecticide in the reservoir 50. This increases the viscosity of the formula and slows down the overall release rates, leading to a negative impact on product performance. […] [table]

[2] = Release rates over 14 days for solvents with different boiling point ranges (Table 7)
Text: The effect of solvents with different boiling point ranges on release rates were studied and the results are show in the following Table 7: [table]

Viscosity of solvent = settings: at 25 deg. C.
Description: Referring again to Table 5, release rates of 8.0 wt %/wt % Transfluthrin in solvent are strongly correlated to viscosity of solvent. A solvent viscosity of less than or substantially equal to about 4 centistokes (cSt) at 25 Celsius is preferred as release rates stay above 5 mg/hr. Release rates lower than 5 mg/hr require much higher concentration of insecticide (higher insecticidal concentrations lead to thickening of the formula which may become unacceptable to delivery via piezoelectric delivery systems). A solvent viscosity of less than or substantially equal to about 3 cSt is more preferred as this enables the insecticidal concentration(s) to be kept below 10%.

[3] = Storage stability of insecticide in solvent
Text: Stability data determined using analytical tools are given below:

[4] = With 8.0 wt %/wt % Transfluthrin in Solvent

Evaporation Loss as Percent of Release Rate [1, 4]	Evaporation Loss [1, 4]	Release Rate in High Setting [1, 4]	Evaporation Loss as Percent of Release Rate ([1]; With Pure Solvent)	Evaporation Loss ([1]; With Pure Solvent)	Release Rate in High Setting ([1]; With Pure Solvent)	Residual Liquid ([2]; after the 14 days)	Average Release Rate during 1–5 days ([2]; high setting, average period of 7.1 hours per day, days 1–5)	Average Release Rate during 6–10 days ([2]; high setting, average period of 7.1 hours per day, days 6–10)	Average Release Rate during 11–14 days ([2]; high setting, average period of 7.1 hours per day, days 11–14)	Viscosity of Solvent (Viscosity of solvent)	SMILES	Stability in hydrocarbon solvents (conclusion) [3]
73.1%	16.05 mg/h	22.0 mg/h	38.4%	9.73 mg/h	25.3 mg/h	Zero	19.1 mg/h	18.0 mg/h	10.0 mg/h	2.7 cSt	CCCOCC(C)O (stereo not shown) [DOWANOL ® PnP]	–
–	–	–	–	–	–	–	–	–	–	–	CC1(C)[C@H](C=C(Cl)Cl)[C@H]1C(=O)OCc1c(F)c(F)cc(F)c1F [Transfluthrin]	stable
–	–	–	–	–	–	–	–	–	–	–	C/C=C/C1C(C(=O)OCc2c(F)c(F)c(COC)c(F)c2F)C1(C)C (stereo not shown) [Metofluthrin]	stable
